Test results published in doi:10.1101/843607v1 (biorxiv, 2019).

Target: T1, Recombinant Mouse Matriptase (Mus musculus, UniProt P56677)
T1 sequence (P56677 615-855 limits assumed): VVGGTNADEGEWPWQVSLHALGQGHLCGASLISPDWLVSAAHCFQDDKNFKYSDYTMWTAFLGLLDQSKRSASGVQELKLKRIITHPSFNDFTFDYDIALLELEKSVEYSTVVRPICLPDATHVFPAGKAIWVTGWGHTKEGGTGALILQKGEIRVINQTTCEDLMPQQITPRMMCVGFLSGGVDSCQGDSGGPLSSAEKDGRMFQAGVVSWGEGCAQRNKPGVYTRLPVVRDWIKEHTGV
Assay: fluorogenic AMC release from Boc-QAC-AMC
Assay type: biochemical

## N=C(N)c1ccc2cc(OC(=O)c3ccc(N=C(N)N)cc3)ccc2c1 [Nafamostat mesilate]
  IC50: 0.86 nM
